Several values for one entry are separate records, joined by “and”; a condition that tells them apart may be missing. Equal entries are not always repeated.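 Compound exposure: 48 hours, 5 concentrations, 96-well plates. Here, GI50 denotes the concentration required for 50% inhibition of growth. TGI: total growth inhibition.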

Test systems include TK-10 renal; COLO 205 colon; SK-MEL-2 melanoma; NCI-H460 lung; HOP-92 NSCLC; SN12C renal; MALME-3M melanoma; IGROV1 ovarian; OVCAR-8 ovarian; CAKI-1 renal.
Common to all, as to test: NCI tumour cell line growth inhibition, 48 h

With `CC1=N/C(=C\c2cccc3ccccc23)C(=O)O1`, the TGI in the assay on TK-10 renal, with COLO 205 colon, with SK-MEL-2 melanoma, with NCI-H460 lung, in the assay on HOP-92 NSCLC and in the assay with SN12C renal was more than 100 µM each time. Moreover, the TGI in the assay with MALME-3M melanoma, in the assay on IGROV1 ovarian and in the assay on OVCAR-8 ovarian was more than 100 µM each time.
As for `CC1=C(c2cc(C(=O)Nc3cccc(C(F)(F)F)c3)nc(NC#N)n2)Sc2ccccc2N1`, the TGI in the assay with TK-10 renal, in the assay with COLO 205 colon, in the assay on SK-MEL-2 melanoma, with NCI-H460 lung, with HOP-92 NSCLC and with SN12C renal was more than 100 µM throughout. For the same compound, the TGI with MALME-3M melanoma, in the assay with IGROV1 ovarian and in the assay on CAKI-1 renal was more than 100 µM throughout.
`O=C1CCC2CCOc3ccc(O)c1c32` (configuration not stated): the TGI in the assay with TK-10 renal, in the assay on COLO 205 colon, with SK-MEL-2 melanoma, in the assay on NCI-H460 lung, in the assay with HOP-92 NSCLC and in the assay with SN12C renal was more than 100 µM in each case. The TGI in the assay with MALME-3M melanoma, in the assay with IGROV1 ovarian and with OVCAR-8 ovarian was more than 100 µM each time.
Turning to `COc1ccc(Cn2cc(Cn3c(=O)c(-c4nc5ccccc5[nH]4)cc4ccccc43)nn2)c(OC)c1OC`, the GI50 was 0.572 µM and 1.02 µM in the assay on TK-10 renal; 0.676 µM in the assay on SK-MEL-2 melanoma; 0.18 µM in the assay with NCI-H460 lung; 0.48 µM and 0.39 µM with HOP-92 NSCLC; 0.217 µM and 0.426 µM in the assay on SN12C renal; 0.139 µM and 0.42 µM in the assay with MALME-3M melanoma. The GI50 with IGROV1 ovarian was 0.186 µM and 0.445 µM; in the assay with OVCAR-8 ovarian it was 0.213 µM and 0.486 µM; with CAKI-1 renal, 0.35 µM and 0.396 µM. In addition, the TGI was 2.21 µM in the assay on SK-MEL-2 melanoma; 0.893 µM with NCI-H460 lung; 1.92 µM and 9.69 µM with HOP-92 NSCLC; 50 µM and > 100 µM with SN12C renal; 0.985 µM and 2.8 µM with MALME-3M melanoma; 1.84 µM and 3.66 µM with IGROV1 ovarian. Further, the TGI with CAKI-1 renal was 1.47 µM and 3.92 µM.
Consider `COc1cc(/C=C2\CCc3ccccc3C2=O)cc(OC)c1OC`, for which the TGI is 33.6 µM in the assay with TK-10 renal; 30.7 µM with COLO 205 colon; 29.8 µM with SK-MEL-2 melanoma; 36.4 µM with NCI-H460 lung; 24.5 µM with HOP-92 NSCLC; 35.6 µM in the assay with SN12C renal. In addition, the values for the TGI in the assay with MALME-3M melanoma, in the assay on OVCAR-8 ovarian and in the assay on CAKI-1 renal were 32.9 µM, 29.8 µM and 29.8 µM, respectively.
`CC1=N/C(=C\c2ccc([N+](=O)[O-])cc2)C(=O)O1`: the TGI in the assay on TK-10 renal, with COLO 205 colon, in the assay on SK-MEL-2 melanoma, in the assay on NCI-H460 lung, in the assay with HOP-92 NSCLC and with SN12C renal was more than 100 µM each time. Further, the TGI in the assay on MALME-3M melanoma, in the assay on IGROV1 ovarian and with OVCAR-8 ovarian was more than 100 µM each time.
In the case of `CCCCC#Cc1cccc(=O)o1`, the GI50 was more than 100 µM in the assay on TK-10 renal; 2.23 µM in the assay with COLO 205 colon; 20.8 µM with SK-MEL-2 melanoma; 36.2 µM with NCI-H460 lung; 15.3 µM with HOP-92 NSCLC; 57.4 µM with MALME-3M melanoma. The figures for the GI50 in the assay with IGROV1 ovarian, with OVCAR-8 ovarian and with CAKI-1 renal were 79.5 µM, more than 100 µM and more than 100 µM, respectively. The TGI in the assay with TK-10 renal is more than 100 µM; in the assay with COLO 205 colon, 5.3 µM; in the assay with SK-MEL-2 melanoma it was more than 100 µM; with NCI-H460 lung, more than 100 µM; in the assay with HOP-92 NSCLC, more than 100 µM; in the assay with MALME-3M melanoma, more than 100 µM. Moreover, the TGI in the assay on IGROV1 ovarian, in the assay with OVCAR-8 ovarian and in the assay on CAKI-1 renal was more than 100 µM each time.
Turning to `COc1cc2c3c(n(CCCNCCN4CCOCC4)c(=O)c2cc1OC)-c1cc2c(cc1C3=O)OCO2`, the GI50 with TK-10 renal is 7.2 µM and 7.5 µM; with COLO 205 colon it was 2.01 µM and 7.31 µM; in the assay on SK-MEL-2 melanoma it was 7.78 µM and 3.92 µM; in the assay on HOP-92 NSCLC, 5.79 µM and 1.26 µM; in the assay on SN12C renal it was 1.31 µM; in the assay on MALME-3M melanoma, 6.5 µM and 8.31 µM. Also, the GI50 in the assay with IGROV1 ovarian was 6.92 µM and 2.12 µM; in the assay with OVCAR-8 ovarian it was 4.37 µM; in the assay on CAKI-1 renal, 2.61 µM. The TGI in the assay on TK-10 renal was 14.8 µM and 23.5 µM; with COLO 205 colon, 50 µM and 45.8 µM; with SK-MEL-2 melanoma, 14.7 µM and 19.7 µM; with HOP-92 NSCLC it was 12.4 µM and 3.92 µM; with SN12C renal it was 6.5 µM; in the assay with MALME-3M melanoma it was 14.5 µM and 27.3 µM. The TGI with IGROV1 ovarian is 23.5 µM and > 100 µM; in the assay with OVCAR-8 ovarian, 17.4 µM; in the assay with CAKI-1 renal it was 19.4 µM.
Take `OC(C(=Nc1ccccc1)c1ccccc1)c1ccccc1` (configuration not stated): the TGI in the assay with TK-10 renal is 9.53 µM; in the assay on COLO 205 colon, 20.9 µM; with SK-MEL-2 melanoma it was 6.47 µM; in the assay with NCI-H460 lung it was 34.3 µM; in the assay with HOP-92 NSCLC, 21 µM; in the assay on SN12C renal it was 25.3 µM. For the same compound, the TGI in the assay with MALME-3M melanoma was 7.01 µM; in the assay on IGROV1 ovarian it was 51.7 µM; with CAKI-1 renal, 30.3 µM.
Regarding `COC(=O)c1cc2c(cc1Cl)SC(N(N(C)C)S(=O)(=O)c1ccc(Cl)cc1)=NS2(=O)=O`, the GI50 was 19.2 µM in the assay with TK-10 renal; 13.4 µM in the assay with COLO 205 colon; 20.5 µM in the assay on SK-MEL-2 melanoma; 18.7 µM in the assay with NCI-H460 lung; 14.5 µM in the assay on HOP-92 NSCLC; 19.2 µM with SN12C renal. Moreover, the GI50 with MALME-3M melanoma is 13.8 µM; in the assay with IGROV1 ovarian it was 22.5 µM; in the assay on CAKI-1 renal, 21.3 µM. Also, the TGI turned out to be 53.3 µM in the assay with TK-10 renal; 29.8 µM in the assay on COLO 205 colon; 59 µM with SK-MEL-2 melanoma; 37.4 µM with NCI-H460 lung; 30.9 µM in the assay on HOP-92 NSCLC; 47.7 µM with SN12C renal. Also, the TGI in the assay with MALME-3M melanoma was found to be 40 µM; with IGROV1 ovarian, 73.6 µM; in the assay with CAKI-1 renal, 46.1 µM.
For `CC1(CO)C(=O)OC12CCCCC2` (configuration not stated), the TGI in the assay on TK-10 renal, in the assay on COLO 205 colon, in the assay with SK-MEL-2 melanoma, with HOP-92 NSCLC, in the assay on SN12C renal and in the assay with MALME-3M melanoma was more than 100 µM each time. Besides, the TGI in the assay with IGROV1 ovarian, in the assay on OVCAR-8 ovarian and with CAKI-1 renal was more than 100 µM throughout.
For the compound `Cc1nn(C)c(=S)n(C)c1=O`, the TGI in the assay on TK-10 renal is 26.2 µM; in the assay with COLO 205 colon, 15.4 µM; in the assay on SK-MEL-2 melanoma, 34.8 µM; in the assay on NCI-H460 lung it was more than 100 µM; in the assay with HOP-92 NSCLC it was 1.42 µM; in the assay on SN12C renal, 43.4 µM. The TGI in the assay with MALME-3M melanoma was 37.2 µM; in the assay on IGROV1 ovarian, 53.2 µM; with OVCAR-8 ovarian it was 27.3 µM.

Source of the values: PubChem BioAssay (NCI).
